Reference: patent US6482849B1, “Inhibitors of α4β1 mediated cell adhesion” (Tanabe Seiyaku Co., Ltd., priority 1997, dated 2002)
Where a name gives a salt, the structure may show the parent alone.

How the values were obtained:
[1] = target: T1, α4β1 integrin (Jurkat T-cell adhesion to IL-1 stimulated endothelial cell monolayers) (Homo sapiens, UniProt P05556+P13612); assay: Jurkat-Endothelial Cell Adhesion Assay (Jurkat EC); format: cell-based; details: Jurkat cells on IL-1 stimulated HUVEC monolayers
T1 construct: a T-cell line, Jurkat, known to express the α4β1 integrin; host or cells: Jurkat T-cell line
T1 sequence (P13612 34-1032): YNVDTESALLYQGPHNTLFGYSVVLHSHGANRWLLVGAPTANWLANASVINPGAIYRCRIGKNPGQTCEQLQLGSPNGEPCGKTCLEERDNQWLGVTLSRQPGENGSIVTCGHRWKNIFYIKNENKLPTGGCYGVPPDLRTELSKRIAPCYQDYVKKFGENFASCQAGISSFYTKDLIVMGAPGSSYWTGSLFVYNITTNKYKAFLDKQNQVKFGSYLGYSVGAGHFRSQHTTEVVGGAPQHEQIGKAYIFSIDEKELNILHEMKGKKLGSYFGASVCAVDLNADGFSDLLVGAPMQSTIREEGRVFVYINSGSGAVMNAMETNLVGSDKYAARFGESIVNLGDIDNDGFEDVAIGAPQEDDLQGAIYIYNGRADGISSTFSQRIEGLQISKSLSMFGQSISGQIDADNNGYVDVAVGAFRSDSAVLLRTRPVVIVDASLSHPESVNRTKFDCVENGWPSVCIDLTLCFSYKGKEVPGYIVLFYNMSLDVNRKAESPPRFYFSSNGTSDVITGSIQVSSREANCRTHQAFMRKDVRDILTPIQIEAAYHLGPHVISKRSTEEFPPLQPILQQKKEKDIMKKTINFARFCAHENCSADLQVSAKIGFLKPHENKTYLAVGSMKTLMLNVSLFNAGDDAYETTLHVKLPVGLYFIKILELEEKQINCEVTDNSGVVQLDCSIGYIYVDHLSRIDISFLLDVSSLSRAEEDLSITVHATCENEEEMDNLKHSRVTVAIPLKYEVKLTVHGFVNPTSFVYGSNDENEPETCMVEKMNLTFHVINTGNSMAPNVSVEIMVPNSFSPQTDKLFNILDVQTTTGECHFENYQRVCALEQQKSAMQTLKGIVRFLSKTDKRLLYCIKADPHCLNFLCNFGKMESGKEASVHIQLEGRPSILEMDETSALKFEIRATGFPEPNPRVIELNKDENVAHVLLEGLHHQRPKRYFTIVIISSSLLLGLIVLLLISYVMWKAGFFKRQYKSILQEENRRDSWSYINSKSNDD
T1 sequence (P05556 21-798): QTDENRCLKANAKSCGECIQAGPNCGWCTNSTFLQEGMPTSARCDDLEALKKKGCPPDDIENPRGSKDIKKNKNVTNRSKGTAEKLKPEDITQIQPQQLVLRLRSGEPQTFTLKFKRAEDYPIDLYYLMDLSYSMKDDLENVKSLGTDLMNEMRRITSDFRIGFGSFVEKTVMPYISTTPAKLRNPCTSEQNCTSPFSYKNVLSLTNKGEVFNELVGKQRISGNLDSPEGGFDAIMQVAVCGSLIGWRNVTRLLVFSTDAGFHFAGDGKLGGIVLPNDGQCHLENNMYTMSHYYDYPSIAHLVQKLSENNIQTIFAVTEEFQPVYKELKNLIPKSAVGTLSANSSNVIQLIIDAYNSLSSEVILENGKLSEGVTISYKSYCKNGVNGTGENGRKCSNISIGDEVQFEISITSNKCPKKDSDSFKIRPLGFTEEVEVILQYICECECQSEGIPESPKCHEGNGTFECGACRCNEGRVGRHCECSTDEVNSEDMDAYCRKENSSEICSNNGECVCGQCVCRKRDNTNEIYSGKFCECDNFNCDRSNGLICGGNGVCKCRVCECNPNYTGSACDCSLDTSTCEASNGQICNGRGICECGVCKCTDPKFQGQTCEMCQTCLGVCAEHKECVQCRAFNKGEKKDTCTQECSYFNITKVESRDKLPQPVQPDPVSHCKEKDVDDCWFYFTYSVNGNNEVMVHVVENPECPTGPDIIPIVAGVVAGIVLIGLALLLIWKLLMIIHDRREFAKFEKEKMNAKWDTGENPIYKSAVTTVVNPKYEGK
Experimental: The following assay established the activity of the present compounds in inhibiting β1-mediated cell adhesion in a representative in vitro system. This assay measures the adhesive interactions of a T-cell line, Jurkat, known to express the α4β1 integrin, to endothelial monolayers in the presence of test compounds. The test compounds were added in increasing concentrations to T-cells and then the T-cell compound mixture was added to IL-1 stimulated endothelial cell monolayers. The plates were incubated, washed and the percentage of attached cells was quantitated. […] Human umbilical vein endothelial cells were purchased from Clonetics (San Diego, Calif.) at passage number 2. The cells were grown on 0.5% porcine skin gelatin pre-coated flasks (Sigma, St. Louis Mo.) in EGM-UV media (Clonetics, San Diego, Calif.) supplemented with 10% fetal bovine serum. Cells are refed every 2-3 days reaching confluence by day 4 to 6. […] The endothelial cells are not used following passage 6. Am The T-cell line Jurkat was obtained from American Type Tissue Culture Collection (Rockville, Md.) and the cells were cultured in RPMI containing 10% fetal calf serum. The cells were washed twice in Hank's Balanced Salt Solution (HBSS) and resuspended in Dulbecco's […] Eagle's Media (DMEM) containing 2.5 mg/ml Human Serum Albumin (HSA). Jurkat cells (1×10^6 cells/ml) were stained with 10 ng/ml BCECF-AM z z (Molecular Probes, Eugene, Ore.)) in HBSS without phenol red. The cells were loaded with BCECF for 60 minutes in the dark at 37° C., washed 2 times, and resusupended in DMEM-HSA solution.
Confluent endothelial monolayers, grown in 96-well tissue culture plates, were stimulated for 4 hr. at 37° C. with 0.1 ng/ml (˜50 U/ml) recombinant IL-1 (Amgen, Thousand Oaks, Calif.). Following this incubation, the monolayers were washed twice with HBSS and 0.1 ml of DMEM-HSA solution was added. Jurkat cells (5×10^5 cells) were combined with the appropriate concentration of the test compound and 0.1 ml of the Jurkat cell-compound mixture was added to the endothelial cell monolayers. Generally, 100, 20, 5 and 1.25 μM compound concentrations were tested. […] The plates were placed on ice for 5 minutes to allow for Jurkat cell settling and the plates were incubated at 37° C. for 20 minutes. Following this incubation, the monolayers were washed twice with PBS containing 1 mM calcium chloride and 1 mM magnesium chloride and the plates were read using a Millipore Cytofluor 2300 (Marlboro, Mass.). Fluorescence in each well was measured as Arbitrary Fluorescence Units and percent adhesion in the absence of compound was adjusted to 100% and the % adhesion in the presence of compound was calculated. Monolayers were also fixed in 3% paraformaldehyde and evaluated microscopically to verify the adhesion. This procedure is a modification of a previously published method (Cardarelli et al., J. Biol. Chem. 269:18668-18673 (1994)).

[2] = target: T2, α4β1 integrin (Jurkat cell adhesion to immobilized CS-1 derived peptide CLHPGEILDVPST) (Homo sapiens, UniProt P05556+P13612); assay: Jurkat-CS-1 Assay; format: cell-based; details: Jurkat cells on CS-1 peptide coated plates
T2 construct: 100 μl of Jurkat cells (2.5×10^6 cells/ml) in DMEM plus BSA; endogenous in cells; host or cells: Jurkat T-cell line
T2 sequence (P13612 34-1032): as the sequence (P13612 34-1032) above
T2 sequence (P05556 21-798): as the sequence (P05556 21-798) above
Experimental: The CS-1 derived peptide, CLHPGEILDVPST, and the scrambled control peptide, CLHGPIELVSDPT, were synthesized on a Beckman 990 synthesizer using t-Boc methodology. The peptides were immobilized onto microtiter plates using the heterobifunctional crosslinker 3-(2-pyridyldithio)propionic acid N-hydroxysuccinimide ester (SPDP) as reported by Pierschbacher et al., Proc. Natl. Acad. USA, 80:1224-1227 (1983). Microtiter plates were coated with 20 μg/ml HSA for 2 hr. at room temperature, washed once with PBS and derivatized with 10 μg/ml SPDP for 1 hr. After washing, 100 μl of a 100 μg/ml cysteine containing peptide solution which had been recently dissolved was added to the wells and allowed to crosslink to the plates overnight at 4° C. Unbound peptide was removed from plates by washing with PBS. To block non-reacted sites, the plates are coated with 100 μl of a 2.5 mg/ml BSA solution in PBS for 1 hr. at 37° C. 100 μl of Jurkat cells (2.5×10^6 cells/ml) in DMEM plus BSA (2.5 mg/ml) was mixed with an appropriate concentration of the compound to be tested and the mixture was added to peptide coated dishes and incubated for 1 hr. at 37° C. Generally 100, 20, 5 and 1.25 μM concentrations of the compound were tested.
Following this incubation the plates were washed once with PBS and the attached cells were fixed with 3% paraformaldehyde in PBS and stained with 0.5% toluidine blue in 3.7% formaldehyde. The cells were stained overnight at room temperature and the optical density at 590 nm of toluidine blue stained cells was determined using a vertical pathway spectrophotometer to quantitate attachment (VMAX Kinetic Microplate Reader, Molecular Devices, Menlo Park, Calif.). This procedure is a modification of a previously published method (Cardarelli et al, J. Biol. Chem., 269:18668-18673 (1994) and Cardarelli et al, Proc. Natl. Acad. Sci. USA, 83:2647-2651 (1986)).

Row | IC50 [1] | IC50 [2] | SMILES
1 | 800 to 5000 nM | 80 to 500 nM | CC1(C)[C@@H](C(=O)N[C@H](Cc2ccc(OCc3c(Cl)cccc3Cl)cn2)C(=O)O)CC[C@@]1(C)C(=O)O (relative stereo) [Example 254, [1S-[1α(R*),3α]]-α-[[(3-Carboxy-2,2,3-trimethylcyclopentyl)carbonyl]amino]-3-[(2,6-dichlorophenyl)methoxy]-6-pyridinepropanoic acid]
2 | 800 to 5000 nM | 80 to 500 nM | CC1(C)[C@@H](C(=O)N[C@@H](Cc2ccc(OCc3ccc4ccccc4c3)cc2)C(=O)O)CC[C@@]1(C)C(=O)O [Example 10]
3 | 800 to 5000 nM | 80 to 500 nM | CC1(C)[C@@H](C(=O)N[C@@H](Cc2cn(Cc3ccc(Cl)cc3Cl)cn2)C(=O)O)CC[C@@]1(C)C(=O)O [Example 24]
4 | 800 to 5000 nM | 500 to 1000 nM | CC1(C)[C@@H](C(=O)N[C@@H](Cc2cn(Cc3c(Cl)cccc3Cl)cn2)C(=O)O)CC[C@@]1(C)C(=O)O [Example 26]
5 | 800 to 5000 nM | 80 to 500 nM | CC1(C)[C@@H](C(=O)N[C@@H](Cc2cn(Cc3ccc(Cl)cc3)cn2)C(=O)O)CC[C@@]1(C)C(=O)O [Example 28]
6 | 5000 to 10000 nM | 500 to 1000 nM | CC1(C)[C@@H](C(=O)N[C@@H](Cc2cn(Cc3ccccc3C(F)(F)F)cn2)C(=O)O)CC[C@@]1(C)C(=O)O [Example 36]
7 | 800 to 5000 nM | 80 to 500 nM | CC1(C)[C@@H](C(=O)N[C@@H](Cc2cn(Cc3ccc4ccccc4c3)cn2)C(=O)O)CC[C@@]1(C)C(=O)O [Example 38]

Continued, molecule first:

Row | SMILES | IC50 [1] | IC50 [2]
8 | CC1(C)[C@@H](C(=O)O)CC[C@@]1(C)NC(=O)N[C@]1(C)CC[C@H](C(=O)N[C@@H](Cc2ccc(NC(=O)c3c(Cl)cccc3Cl)cc2)C(=O)O)C1(C)C (relative stereo) [Example 236, [1S-[1α,3α(1S*,3R*)-N-]]-N-[[3[[[(3-Carboxy-1,2,2-trimethylcyclopentyl)amino]carbonyl]-amino]-2,2,3-trimethylcyclopentyl]carbonyl]-4-[(2,6-dichlorobenzoyl)-amino]-L-phenylalanine] | ≤ 800 nM | 80 to 500 nM
9 | COC(=O)[C@H](Cc1ccc(NC(=O)c2c(Cl)cccc2Cl)cc1)NC(=O)[C@H]1CC[C@@](C)(C(=O)O)C1(C)C [Example 53, (1S-cis)-N-[(3-Carboxy-2,2,3-trimethylcyclopentyl)carbonyl]-4-[(2,6-dichlorobenzoyl)amino]-L-phenylalanine methyl ester] | 800 to 5000 nM | 500 to 1000 nM
10 | CC1(C)[C@@H](C(=O)N[C@@H](Cc2ccc(OCc3c(Cl)cccc3Cl)c(O)c2)C(=O)O)CC[C@@]1(C)C(=O)O [Example 65] | ≤ 800 nM | 80 to 500 nM
11 | COC(=O)[C@H](Cc1ccc(NC(=O)c2c(Cl)cc(Cl)cc2Cl)cc1)NC(=O)[C@H]1CC[C@@](C)(C(=O)O)C1(C)C [Example 92] | ≤ 800 nM | ≤ 80 nM
12 | CC1(C)[C@@H](C(=O)N[C@@H](Cc2ccc(NC(=O)c3ccccc3[N+](=O)[O-])cc2)C(=O)O)CC[C@@]1(C)C(=O)O [Example 102] | ≤ 800 nM | ≤ 80 nM
13 | COC(=O)[C@H](Cc1ccc(NC(=O)c2cc(C(F)(F)F)ccc2C(F)(F)F)cc1)NC(=O)[C@H]1CC[C@@](C)(C(=O)O)C1(C)C [Example 103] | ≤ 800 nM | ≤ 80 nM
14 | CC1(C)[C@@H](C(=O)N[C@@H](Cc2ccc(C(=O)Nc3c(Cl)cccc3Cl)cc2)C(=O)O)CC[C@@]1(C)C(=O)O [Example 153] | 800 to 5000 nM | 80 to 500 nM
15 | CC1(C)[C@@H](C(=O)N[C@@H](Cc2ccc(NC(=O)c3c(Cl)cccc3Cl)cc2)C(=O)O)CC[C@@]1(C)/C=C/C(=O)O [Example 182, [1S-[1α,3α(E)]]-N-[[3-(2-Carboxyethenyl)-2,2,3-trimethylcyclopentyl]carbonyl]-4-[(2,6-dichlorobenzoyl)amino]-L-phenylalanine disodium salt] | ≤ 800 nM | ≤ 80 nM
